ChEMBL document CHEMBL3244268, “Nucleosides. 102. Synthesis of some 3'-deoxy-3'-substituted arabinofuranosylpyrimidine nucleosides” (1977)
In brackets after ≈: the same amount, converted by molar mass.

What follows are compounds tested on L5178Y (assay: Growth inhibition of mouse L5178Y cells). Settings: read-out: ID50 (the source's name).
Type: functional

Row | Structure (SMILES) | IC50 [µg/mL]
1 | Nc1ccn([C@@H]2O[C@H](CO)[C@@H](Br)[C@@H]2O)c(=O)n1 | 10 (≈ 32.7 µM)
2 | [N-]=[N+]=N[C@H]1[C@H](O)[C@H](n2ccc(N)nc2=O)O[C@@H]1CO | 0.5 (≈ 1.86 µM)
3 | Nc1ccn([C@@H]2O[C@H](CO)[C@@H](I)[C@@H]2O)c(=O)n1 | 1 (≈ 2.83 µM)

The compounds below were run on L5178Y (assay: Growth inhibition of mouse L5178Y cells at 10 ug/ml). Settings: read-out: GI.
Type: functional

Row | Structure (SMILES) | inhibition of growth at 10 µg/mL [%]
4 | O=c1ccn([C@@H]2O[C@H](CO)[C@@H](I)[C@@H]2O)c(=O)[nH]1 | 0
5 | [N-]=[N+]=N[C@H]1[C@H](O)[C@H](n2ccc(=O)[nH]c2=O)O[C@@H]1CO | 0
6 | O=c1ccn([C@@H]2O[C@H](CO)[C@@H](Br)[C@@H]2O)c(=O)[nH]1 | 6
7 | Nc1ccn([C@@H]2O[C@H](CO)[C@@H](N=C=S)[C@@H]2O)c(=O)n1 | 34
8 | O=c1ccn([C@@H]2O[C@H](CO)[C@@H](N=C=S)[C@@H]2O)c(=O)[nH]1 | 5
